# Test results taken from US9115093B2, “Substituted bicyclic dihydropyrimidinones and their use as inhibitors of neutrophil elastase activity” (Boehringer Ingelheim International GmbH, priority 2013, dated 2015).
# What was measured:
# [1] = Drug transport across human CACO-2 cells; assay type: in vitro ADME
# Text: Assay for Determination of Drug Transport Across Human CACO-2 Cells
# The assay provides information on the potential of a compound to pass the cell membrane, on the extent of oral absorption as well as on whether the compound is actively transported by uptake and/or efflux transporters. For the measurement of permeability across polarized, confluent human cancer colon carcinoma cells 2 (Caco-2) cell monolayers grown on permeable filter supports are used as the in vitro absorption model. Apparent permeability coefficients (PE) of the compounds across the Caco-2 monolayers are measured (pH 7.2, 37° C.) in apical-to-basal (AB) (absorptive) and basal-to-apical (BA) (secretory) transport direction. AB permeability (PEAB) represents drug absorption from the intestine into the blood and BA permeability (PEBA) drug secretion from the blood back into the intestine via both passive permeability as well as active transport mechanisms mediated by efflux and uptake transporters that are expressed on the Caco-2 cells. The compounds are assigned to permeability/absorption classes by comparison of the AB permeabilities with the AB permeabilities of reference compounds with known in vitro permeability and oral absorption in the human. Identical or similar permeabilities in both transport directions indicate passive permeation, vectorial permeability points to additional active transport mechanisms. […] Active transport is concentration-dependently saturable.
# Caco-2 cells (1−2*10^5 cells/cm^2 area) are seeded on filter inserts (Costar transwell polycarbonate or PET filters, […] pore size) and cultured (DMEM) for 10 to 25 days. Compounds are dissolved in appropriate solvent (like DMSO, 1-20 mM stock solutions). Stock solutions are diluted with HTP-4 buffer (128.13 mM NaCl, 5.36 mM KCl, 1 mM MgSO4, 1.8 mM CaCl2, 4.17 mM NaHCO3, 1.19 mM Na2HPO4×7H2O, 0.41 mM NaH2PO4×H2O, 15 mM HEPES, 20 mM glucose, pH 7.2) to prepare the transport solutions (typically […] compound, final DMSO <=0.5%). The transport solution (TL) is applied to the apical or basolateral donor side for measuring A-B or B-A permeability (3 filter replicates), respectively. The receiver side contains HTP-4 buffer supplemented with 2% BSA. Samples are collected at the start and end of experiment from the donor and at various time intervals for up to 2 hours also from the receiver side for concentration measurement by LC-MS/MS or scintillation counting. Sampled receiver volumes are is replaced with fresh receiver solution.
# The apparent permeability coefficients (PEAB and PEBA) and efflux ratios (PEBA/PEAB) of selected compounds in the Caco-2 drug transport assay described above are listed in Table 17.
# neutrophil elastase [2] = molecular target: T1, neutrophil elastase (Homo sapiens, UniProt P08246); test: Human Neutrophil Elastase Assay; assay type: biochemical; parameters: purchased Calbiochem 324681; conditions: substrate MeOSuc-Ala-Ala-Pro-Val-AMC, pH 7.5, room temperature
# T1 sequence (P08246 30-247 limits assumed): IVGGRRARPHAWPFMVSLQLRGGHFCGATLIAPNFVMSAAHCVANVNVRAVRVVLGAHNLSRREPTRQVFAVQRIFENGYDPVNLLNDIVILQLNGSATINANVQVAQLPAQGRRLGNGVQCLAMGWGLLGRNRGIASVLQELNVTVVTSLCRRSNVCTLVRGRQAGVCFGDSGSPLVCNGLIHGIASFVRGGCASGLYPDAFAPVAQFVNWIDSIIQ
# Procedure, shortened: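 Readout: AMC fluorescence (ex 380, em 460 nm) after 60 min room-temperature reaction with 250 nM MeOSuc-AAPV-AMC, following 15 min compound–enzyme preincubation. Buffer: Tris/NaCl pH 7.5, 0.01% BSA.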
# Aqueous solubility = assay type: physicochemical; conditions: McIlvaine buffer with 2.5% DMSO; McIlvaine buffer pH 6.8, 2.5% DMSO, 24 h shaking
# Protocol: Assay for Determination of Aqueous Solubility
# The aqueous solubility of a compound is determined by comparing the amount dissolved in aqueous buffer (containing 2.5% DMSO) to the amount dissolved in an acetonitrile/water (1/1) solution. Starting from a 10 mM DMSO stock solution, aliquots are diluted with acetonitrile/water (1/1) and Mcllvaine buffer pH 6.8, respectively. After 24 h of shaking, the solutions or suspensions are filtered and analyzed by LC-UV. The amount dissolved in buffer is compared to the amount dissolved in the acetonitrile/water (1/1) solution. Solubility is measured from 0.001 to 0.125 mg/ml at a DMSO concentration of 2.5%. If more than 90% of the compound is dissolved in buffer, the value is marked with “>”.
# neutrophil elastase [3] = molecular target: T1, neutrophil elastase; test: Neutrophil elastase inhibitory activity in human plasma; assay type: biochemical; parameters: The stimulated blood is centrifuged to generate the neutrophil elastase enriched plasma; from tissue; host or cells: plasma from zymosan-stimulated citrated whole blood of healthy human donors; conditions: neutrophil elastase enriched human plasma (zymosan-stimulated blood), substrate MeOSuc-Ala-Ala-Pro-Val-AMC
# Protocol: Assay for the Determination of Neutrophil Elastase Inhibitory Activity in Human Plasma
# Citrated blood from human healthy donors is mixed with zymosan suspension and incubated at room temperature. This leads to the stimulation of neutrophils and the release of neutrophil elastase into the plasma. The stimulated blood is centrifuged to generate the neutrophil elastase enriched plasma.
# Preparation of Zymosan Working Solution:
# • single 45 ml blood sample is taken into a 50 ml tube containing citrate (3.13%, 5 mL) and the tube is gently inverted 4 times. • Immediately after blood sampling, zymosan working solution (5 mL) is added. • After the addition of zymosan working solution, the tubes are capped, mixed gently and incubated at 22° C. for 15 min on a shaker at 20 rpm. • Make 10 ml aliquots after the incubation time. • Centrifuge the 15 ml tubes at 800 g for […] at 4° C. in a Jouan centrifuge. • Harvest the plasma and make 1-5 ml aliquots. • Store the plasma at −80° C.
# Various concentrations of the neutrophil elastase inhibitor are incubated with plasma. Subsequently, the enzyme activity is measured using the fluorogenic substrate MeOSuc-Ala-Ala-Pro-Val-AMC (Bachem Cat. No. 1-1270, substrate concentration: 250 μM, pH 7.5, 25 mM TRIS buffer, 250 mM NaCl) in analogous fashion as described for the human neutrophil assay. A dose response curve is generated to calculate the EC50 of the inhibitor. The analysis of the data is performed by the calculation of the percentage of fluorescence in the presence of the test compound compared to the fluorescence of the vehicle control after subtracting the background fluorescence: An inhibitor of the neutrophil elastase enzyme will give values between 100% control (no inhibition) and 0% control (complete inhibition). The human plasma shift of selected compounds can be calculated using the following equation: Human plasma shift=(EC50 in human plasma assay)/(IC50 in human neutrophil elastase assay) The EC50 values of selected compounds in the human plasma assay described above are listed in Table 14.
compound,measurement,setting,value
CN(C)CCNC(=O)N1C(=O)N(c2cccc(C(F)(F)F)c2)C2=C(C(=O)CCC2)C1c1ccc(C#N)cc1 (stereo not drawn) [Example 39.8],Papp A→B at 10 nM,"[1]; Caco-2 monolayers, apical-to-basal, pH 7.2, 37° C., read-out: PEAB",16.4 ×10⁻⁶ cm/s
same,Papp B→A at 10 nM,"[1]; Caco-2 monolayers, basal-to-apical, pH 7.2, 37° C., read-out: PEBA",80.7 ×10⁻⁶ cm/s
same,efflux ratio at 10 nM,"[1]; pH 7.2, Caco-2, PEBA/PEAB",4.9
same,IC50,neutrophil elastase [2],1.4 nM
same,solubility at 24 h,Aqueous solubility,98 µg/mL
same,EC50,neutrophil elastase [3],6 nM
